The source made the active and inactive calls. The calls are words filed in the database; no cut-off is given here.
What was measured:
[1] = Antitumor activity against human U87MG cells xenografted in mouse assessed as tumor growth inhibition at 25 mg/kg, iv dosed 3 times per week for 17 consecutive days relative to control; type: functional, U-87MG ATCC
[2] = Antitumor activity against human U87MG cells xenografted in mouse assessed as tumor growth inhibition at 50 mg/kg, iv dosed 3 times per week for 17 consecutive days relative to control; type: functional, U-87MG ATCC
Mus musculus = assay: Toxicity in human U87MG cells xenografted mouse assessed as weight loss at 25 to 50 mg/kg, iv dosed 3 times per week for 17 consecutive days relative to control; type: organism-based, U-87MG ATCC; parameters: dose 25-50 mg/kg, route intravenous; settings: in vivo
A549 = assay: Growth inhibition of human A549 cells after 72 hrs by SRB assay; type: functional; settings: A549, 72 h
[3] = Growth inhibition of human HCC827 cells after 72 hrs by SRB assay; type: functional; settings: HCC827, 72 h
NCI-H596 = assay: Growth inhibition of human NCI-H596 cells after 72 hrs by SRB assay; type: functional; settings: NCI-H596, 72 h
MDA-MB-231 = assay: Growth inhibition of human MDA-MB-231 cells after 72 hrs by SRB assay; type: functional; settings: MDA-MB-231, 72 h
MDA-MB-468 = assay: Growth inhibition of human MDA-MB-468 cells after 72 hrs by SRB assay; type: functional; settings: MDA-MB-468, 72 h
HCC1937 = assay: Growth inhibition of human HCC1937 cells after 72 hrs by SRB assay; type: functional; settings: HCC1937, 72 h
SW-620 = assay: Growth inhibition of human SW620 cells after 72 hrs by SRB assay; type: functional; settings: SW-620, 72 h
[4] = Growth inhibition of human U87MG cells after 72 hrs by SRB assay; type: functional, U-87MG ATCC; settings: U-87 MG
SW480 = assay: Growth inhibition of human SW480 cells after 72 hrs by SRB assay; type: functional; settings: SW480, 72 h
[5] = Growth inhibition of human HCT116 cells after 72 hrs by SRB assay; type: functional; settings: HCT-116, 72 h
[6] = Growth inhibition of human SMMC7721 cells after 72 hrs by SRB assay; type: functional; settings: SMMC-7721, 72 h
DU-145 = assay: Growth inhibition of human DU145 cells after 72 hrs by SRB assay; type: functional; settings: DU-145, 72 h
[7] = Growth inhibition of human OVCAR8 cells after 72 hrs by SRB assay; type: functional; settings: OVCAR-8, 72 h
[8] = Growth inhibition of human 786-O cells after 72 hrs by SRB assay; type: functional; settings: 786-0, 72 h
HeLa = assay: Growth inhibition of human HeLa cells after 72 hrs by SRB assay; type: functional
SK-MEL-28 = assay: Growth inhibition of human SK-MEL-28 cells after 72 hrs by SRB assay; type: functional; settings: SK-MEL-28, 72 h
hERG (KCNH2) = hERG (KCNH2) (Homo sapiens, UniProt Q12809); assay: Inhibition of human ERG at 1 uM
hERG (KCNH2), sequence (Q12809 whole entry): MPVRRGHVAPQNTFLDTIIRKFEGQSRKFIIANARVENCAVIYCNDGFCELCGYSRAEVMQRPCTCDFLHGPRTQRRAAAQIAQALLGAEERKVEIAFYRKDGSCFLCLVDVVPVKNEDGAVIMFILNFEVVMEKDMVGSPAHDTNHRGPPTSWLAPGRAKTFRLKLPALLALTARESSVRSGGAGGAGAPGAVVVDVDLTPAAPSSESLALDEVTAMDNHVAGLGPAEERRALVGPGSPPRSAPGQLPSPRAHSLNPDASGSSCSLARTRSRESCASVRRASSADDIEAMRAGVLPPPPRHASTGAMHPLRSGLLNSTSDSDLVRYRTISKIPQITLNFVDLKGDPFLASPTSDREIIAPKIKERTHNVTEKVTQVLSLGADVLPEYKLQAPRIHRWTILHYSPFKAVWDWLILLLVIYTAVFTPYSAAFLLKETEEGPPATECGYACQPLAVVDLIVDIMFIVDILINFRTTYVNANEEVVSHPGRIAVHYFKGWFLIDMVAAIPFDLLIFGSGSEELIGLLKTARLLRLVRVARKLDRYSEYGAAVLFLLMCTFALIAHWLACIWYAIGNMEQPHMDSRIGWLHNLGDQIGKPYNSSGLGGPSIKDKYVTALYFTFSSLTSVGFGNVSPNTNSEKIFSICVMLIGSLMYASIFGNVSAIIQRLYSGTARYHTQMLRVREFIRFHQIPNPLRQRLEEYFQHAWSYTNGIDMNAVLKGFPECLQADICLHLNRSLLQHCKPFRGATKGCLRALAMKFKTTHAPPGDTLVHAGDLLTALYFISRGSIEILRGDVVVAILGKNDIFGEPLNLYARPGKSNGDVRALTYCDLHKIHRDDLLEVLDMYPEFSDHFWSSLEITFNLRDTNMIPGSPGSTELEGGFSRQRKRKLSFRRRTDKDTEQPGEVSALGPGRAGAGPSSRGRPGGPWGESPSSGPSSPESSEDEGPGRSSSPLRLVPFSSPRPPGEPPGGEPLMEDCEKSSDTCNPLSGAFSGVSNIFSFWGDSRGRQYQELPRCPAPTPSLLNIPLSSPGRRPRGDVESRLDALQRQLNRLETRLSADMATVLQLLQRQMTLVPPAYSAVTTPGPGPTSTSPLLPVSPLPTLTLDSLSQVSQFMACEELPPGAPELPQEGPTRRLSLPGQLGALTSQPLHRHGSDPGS

[9] = Intrinsic clearance in rat liver microsomes assessed per mg protein; type: ADME; settings: read-out: CLH
[10] = Intrinsic clearance in human liver microsomes assessed per mg protein; type: ADME; settings: read-out: CLH
Cytochrome P450 3A4 = Cytochrome P450 3A4 (Homo sapiens, UniProt P08684); assay: (§1) Inhibition of CYP3A4 in human liver microsomes at 10 uM after 20 mins; settings: microsomes, 20 min, 10 µM
Cytochrome P450 3A4, sequence (P08684 whole entry): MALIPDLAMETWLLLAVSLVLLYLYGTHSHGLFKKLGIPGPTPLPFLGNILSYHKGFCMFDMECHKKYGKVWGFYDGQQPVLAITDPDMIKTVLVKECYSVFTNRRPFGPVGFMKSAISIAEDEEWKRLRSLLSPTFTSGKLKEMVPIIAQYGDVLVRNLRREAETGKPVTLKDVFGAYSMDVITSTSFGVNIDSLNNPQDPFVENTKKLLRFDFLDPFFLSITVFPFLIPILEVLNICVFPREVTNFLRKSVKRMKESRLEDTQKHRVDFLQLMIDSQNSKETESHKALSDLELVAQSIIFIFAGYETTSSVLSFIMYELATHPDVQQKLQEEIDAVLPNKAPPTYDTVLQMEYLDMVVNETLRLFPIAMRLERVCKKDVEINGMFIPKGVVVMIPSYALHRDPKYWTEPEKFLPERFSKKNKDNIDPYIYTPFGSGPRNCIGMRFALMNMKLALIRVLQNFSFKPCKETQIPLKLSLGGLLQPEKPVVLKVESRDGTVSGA

CYP2D6 = CYP2D6 (Homo sapiens, UniProt P10635); assay: Inhibition of CYP2D6 in human liver microsomes at 10 uM after 20 mins
CYP2D6, sequence (P10635 whole entry): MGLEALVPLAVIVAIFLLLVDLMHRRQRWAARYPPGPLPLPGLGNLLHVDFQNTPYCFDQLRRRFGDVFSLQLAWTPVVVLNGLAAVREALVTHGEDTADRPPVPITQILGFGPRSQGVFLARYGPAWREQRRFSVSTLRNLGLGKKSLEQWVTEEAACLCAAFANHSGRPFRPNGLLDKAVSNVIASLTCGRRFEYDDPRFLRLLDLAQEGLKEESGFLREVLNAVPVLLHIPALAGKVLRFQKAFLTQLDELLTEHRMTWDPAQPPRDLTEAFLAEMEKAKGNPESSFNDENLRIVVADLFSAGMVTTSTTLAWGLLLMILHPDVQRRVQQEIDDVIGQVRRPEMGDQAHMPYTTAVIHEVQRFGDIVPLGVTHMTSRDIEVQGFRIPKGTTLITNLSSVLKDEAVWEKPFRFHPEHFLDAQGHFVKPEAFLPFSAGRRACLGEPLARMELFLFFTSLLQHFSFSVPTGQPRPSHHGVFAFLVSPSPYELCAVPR

CYP2C9 = CYP2C9 (Homo sapiens, UniProt P11712); assay: Inhibition of CYP2C9 in human liver microsomes at 10 uM after 20 mins
CYP2C9, sequence (P11712 whole entry): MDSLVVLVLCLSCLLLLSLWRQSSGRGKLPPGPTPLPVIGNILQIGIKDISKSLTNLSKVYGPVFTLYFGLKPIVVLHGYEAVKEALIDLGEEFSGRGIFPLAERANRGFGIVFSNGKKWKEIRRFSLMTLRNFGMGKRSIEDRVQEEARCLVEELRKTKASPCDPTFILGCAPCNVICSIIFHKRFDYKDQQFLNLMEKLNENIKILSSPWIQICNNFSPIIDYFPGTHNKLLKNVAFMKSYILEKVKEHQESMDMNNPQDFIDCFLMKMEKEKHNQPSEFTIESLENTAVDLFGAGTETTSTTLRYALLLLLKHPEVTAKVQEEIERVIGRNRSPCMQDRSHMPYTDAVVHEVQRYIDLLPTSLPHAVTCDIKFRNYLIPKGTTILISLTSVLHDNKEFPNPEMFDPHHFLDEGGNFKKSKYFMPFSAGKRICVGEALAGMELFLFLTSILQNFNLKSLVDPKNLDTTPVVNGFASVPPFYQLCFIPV

CYP1A2 = target: T1, CYP1A2 (Homo sapiens, UniProt P05177); assay: Inhibition of CYP1A2 in human liver microsomes at 10 uM after 20 mins
T1 sequence (P05177 whole entry): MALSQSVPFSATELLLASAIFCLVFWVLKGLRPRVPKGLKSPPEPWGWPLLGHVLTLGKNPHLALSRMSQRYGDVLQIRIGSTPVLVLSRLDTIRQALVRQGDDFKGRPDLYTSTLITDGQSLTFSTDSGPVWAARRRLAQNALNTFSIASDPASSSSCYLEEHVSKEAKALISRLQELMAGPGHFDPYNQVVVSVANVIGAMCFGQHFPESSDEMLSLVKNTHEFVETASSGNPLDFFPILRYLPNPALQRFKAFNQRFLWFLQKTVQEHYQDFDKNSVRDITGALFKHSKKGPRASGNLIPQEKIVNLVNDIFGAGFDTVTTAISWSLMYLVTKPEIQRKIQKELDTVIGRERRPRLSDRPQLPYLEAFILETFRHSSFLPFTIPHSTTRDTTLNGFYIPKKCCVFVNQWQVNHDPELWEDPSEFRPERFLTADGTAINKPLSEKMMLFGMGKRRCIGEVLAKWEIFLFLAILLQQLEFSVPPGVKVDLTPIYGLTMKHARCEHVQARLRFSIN

[11] = Cmax in mouse at 50 mg/kg, po; type: ADME, organism-based; parameters: dose 50 mg/kg, route oral; settings: in vivo
[12] = Tmax in mouse at 50 mg/kg, po; type: ADME, organism-based; parameters: dose 50 mg/kg, route oral; settings: in vivo
[13] = Half life in mouse at 50 mg/kg, po; type: ADME, organism-based; parameters: dose 50 mg/kg, route oral; settings: in vivo
[14] = Mean residence time in mouse at 50 mg/kg, po; type: ADME, organism-based; parameters: dose 50 mg/kg, route oral; settings: in vivo
[15] = AUC (0 to t) in mouse at 50 mg/kg, po; type: ADME, organism-based; parameters: dose 50 mg/kg, route oral; settings: plasma
[16] = Oral bioavailability in mouse at 50 mg/kg; type: ADME, organism-based; settings: in vivo
[17] = Half life in mouse at 10 mg/kg, iv; type: ADME, organism-based; parameters: dose 10 mg/kg, route intravenous; settings: in vivo
[18] = Mean residence time in mouse at 10 mg/kg, iv; type: ADME, organism-based; parameters: dose 10 mg/kg, route intravenous; settings: in vivo
[19] = AUC (0 to t) in mouse at 10 mg/kg, iv; type: ADME, organism-based; parameters: dose 10 mg/kg, route intravenous; settings: plasma
[20] = target: T2, Heat shock protein HSP 90-alpha (Homo sapiens, UniProt P07900)
Description: Inhibition of HSP90alpha (unknown origin) after 16 hrs by FP enzymatic assay

[21] = target: T2, Heat shock protein HSP 90-alpha; settings: U-87MG ATCC
Description: Inhibition of HSP90alpha in human U87MG cells assessed as increase in HSP70 level at 50 to 200 nM after 24 hrs by western blotting

[22] = target: T2, Heat shock protein HSP 90-alpha; settings: U-87MG ATCC; remark: listed apart in the source
Description: Inhibition of HSP90alpha in human U87MG cells assessed as increase in HSP27 level at 50 to 200 nM after 24 hrs by western blotting

[23] = target: T2, Heat shock protein HSP 90-alpha; settings: U-87MG ATCC; remark: listed apart in the source
Description: Inhibition of HSP90alpha in human U87MG cells assessed as decrease in c-Met level at 50 to 100 nM after 24 hrs by western blotting

[24] = target: T2, Heat shock protein HSP 90-alpha; settings: U-87MG ATCC; remark: listed apart in the source
Description: Inhibition of HSP90alpha in human U87MG cells assessed as decrease in p-Akt level at 50 to 100 nM after 24 hrs by western blotting

[25] = target: T2, Heat shock protein HSP 90-alpha; settings: U-87MG ATCC; remark: listed apart in the source
Description: Inhibition of HSP90alpha in human U87MG cells assessed as decrease in p-Erk level at 50 to 100 nM after 24 hrs by western blotting

CYP3A4 = CYP3A4 (Homo sapiens, UniProt P08684); assay: as §1; settings: human liver microsomes
CYP3A4, sequence (P08684 whole entry): as the sequence (P08684 whole entry) above

## CC(C)c1cc(-c2noc(NC(=O)C3CC3)c2-c2ccc(CN3CCC(N4CCOCC4)CC3)cc2)c(O)cc1O.Cl
[1]
  T/C: 48.28%
[2]
  T/C: 18.35%
Mus musculus
  Activity: Non-toxic

## CC(C)c1cc(-c2noc(NC(=O)C3CC3)c2-c2ccc(CN3CCOCC3)cc2)c(O)cc1O
A549
  GI50: 41 nM
[3]
  GI50: 15 nM
NCI-H596
  GI50: 166 nM
MDA-MB-231
  GI50: 54 nM
MDA-MB-468
  GI50: 42 nM
HCC1937
  GI50: 114 nM
SW-620
  GI50: 46 nM
[4]
  GI50: 115 nM
SW480
  GI50: 21 nM
[5]
  GI50: 35 nM
[6]
  GI50: 46 nM
DU-145
  GI50: 19 nM
[7]
  GI50: 19 nM
[8]
  GI50: 24 nM
HeLa
  GI50: 46 nM
SK-MEL-28
  GI50: 90 nM
hERG (KCNH2)
  inhibition at 1 µM: 10.5%
[9]
  microsomal CLint: 108 µL/min/mg
[10]
  microsomal CLint: 112 µL/min/mg
Cytochrome P450 3A4
  INH: Not Active
CYP2D6
  inhibition at 20 min, 10 µM: 79%
CYP2C9
  inhibition at 20 min, 10 µM: 66%
CYP1A2
  inhibition at 20 min, 10 µM: 22%
[11]
  Cmax: 438 ng/mL
[12]
  Tmax: 4.98 min
[13]
  half-life: 1.06 h
[14]
  MRT: 1.54 h
[15]
  AUC(0-t): 496 ng·h/mL
[16]
  bioavailability: 16.1%
[17]
  half-life: 1.62 h
[18]
  MRT: 1.86 h
[19]
  AUC(0-t): 615 ng·h/mL
[20]
  IC50: 27 nM
[21]
  inhibition: Active
[22]
  inhibition: Active
[23]
  inhibition: Active
[24]
  inhibition: Active
[25]
  inhibition: Active

## CCNC(=O)c1noc(-c2cc(C(C)C)c(O)cc2O)c1-c1ccc(CN2CCOCC2)cc1 [LUMINESPIB]
A549
  GI50: 26 nM
[9]
  microsomal CLint: 180 µL/min/mg
[10]
  microsomal CLint: 92 µL/min/mg
CYP3A4
  inhibition at 20 min, 10 µM: 12%
CYP2D6
  inhibition at 20 min, 10 µM: 30%
CYP2C9
  inhibition at 20 min, 10 µM: 46%
CYP1A2
  inhibition at 20 min, 10 µM: 23%
[2]
  T/C: 34.06%
